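Interpolation was linear, between the two tested concentrations surrounding the appropriate level; five concentrations were tested over 48 hours in 96-well plates. At the GI50, growth is halved.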 Activity calls are given as the source filed them. Rule as the data show it: active = GI50 up to about 1.1 µM and inactive = higher.
Tests used:
Assay in all cases: NCI tumour cell line growth inhibition, 48 h
OVCAR-3 = system: OVCAR-3
BT-549 = system: BT-549
TK-10 = system: TK-10
HT-29 = system: HT-29
HCT-116 = system: HCT-116
NCI-H23 = system: NCI-H23
SN12C = system: SN12C
NCI-H522 = system: NCI-H522
PC-3 = system: PC-3
CAKI-1 = system: CAKI-1
K562 = system: K562
UACC-62 = system: UACC-62
NCI-H460 = system: NCI-H460
NCI-H226 = system: NCI-H226
UACC-257 = system: UACC-257
IGROV-1 = system: IGROV-1
ACHN = system: ACHN
MDA-MB-435 = system: MDA-MB-435

| Structure (SMILES) | GI50 (OVCAR-3) | GI50 (BT-549) | GI50 (TK-10) | GI50 (HT-29) | GI50 (HCT-116) | GI50 (NCI-H23) | GI50 (SN12C) | GI50 (NCI-H522) | GI50 (PC-3) | GI50 (CAKI-1) | GI50 (K562) | GI50 (UACC-62) | GI50 (NCI-H460) | GI50 (NCI-H226) | GI50 (UACC-257) | GI50 (IGROV-1) | GI50 (ACHN) | GI50 (MDA-MB-435) |
| --- | --- | --- | --- | --- | --- | --- | --- | --- | --- | --- | --- | --- | --- | --- | --- | --- | --- | --- |
| Cc1cccc(C(C)O)n1 (configuration not stated) | > 100 µM (inactive) | > 100 µM (inactive) | > 100 µM (inactive) | > 100 µM (inactive) | > 100 µM (inactive) | > 100 µM (inactive) | > 100 µM (inactive) | > 100 µM (inactive) | > 100 µM (inactive) | > 100 µM (inactive) | > 100 µM (inactive) | > 100 µM (inactive) | > 100 µM (inactive) | > 100 µM (inactive) | > 100 µM (inactive) | > 100 µM (inactive) | > 100 µM (inactive) |  |
| CCC(=O)Nc1ccc(/N=C/c2cccc(Oc3ccccc3)c2)cc1 | 63.8 µM (inactive) | > 100 µM (inactive) |  | 49.2 µM (inactive) | 39.8 µM (inactive) | > 100 µM (inactive) | > 100 µM (inactive) | > 100 µM (inactive) | 64.4 µM (inactive) | > 100 µM (inactive) | 24.4 µM (inactive) | 95.7 µM (inactive) |  | 18.2 µM (inactive) |  | 63.4 µM (inactive) | > 100 µM (inactive) | 47.3 µM (inactive) |
| CC[C@@H]1CN2CCC1C[C@@H]2C(O)c1ccnc2ccc(OCCN3CCN(CCOc4ccc5nccc(C(O)[C@@H]6C[C@@H]7CCN6C[C@@H]7CC)c5c4)CC3)cc12 (some centres not stated) | 19.6 µM (inactive) | 19.1 µM (inactive) | 14.4 µM (inactive) | 15.7 µM (inactive) | 14.2 µM (inactive) | 20.7 µM (inactive) | 14.3 µM (inactive) | 12 µM (inactive) | 15.9 µM (inactive) | 17.9 µM (inactive) | 2.63 µM (inactive) | 16.1 µM (inactive) | 17.3 µM (inactive) |  | 16.1 µM (inactive) | 13.9 µM (inactive) | 15.1 µM (inactive) | 13.8 µM (inactive) |
| CC(C)=CCC[C@@H](C)C1=C(O)C(=O)C(C)=C(Nc2ccccc2Br)C1=O | 4.13 µM (inactive) | 14 µM (inactive) | 22.4 µM (inactive) | 19.6 µM (inactive) | 18.1 µM (inactive) | 9.71 µM (inactive) | 12.5 µM (inactive) |  | 8.51 µM (inactive) | 18.6 µM (inactive) | 10.8 µM (inactive) | 13.3 µM (inactive) | 13.4 µM (inactive) | 14.7 µM (inactive) | 14.9 µM (inactive) | 8.69 µM (inactive) | 15.6 µM (inactive) | 19.9 µM (inactive) |
| O=[N+]([O-])C(=C1NCCN1)/C(Cl)=C(/Cl)N1CCOCC1 | > 100 µM (inactive) | > 100 µM (inactive) |  | > 100 µM (inactive) | > 100 µM (inactive) | > 100 µM (inactive) | > 100 µM (inactive) |  | > 100 µM (inactive) | > 100 µM (inactive) | > 100 µM (inactive) | > 100 µM (inactive) | > 100 µM (inactive) | > 100 µM (inactive) | > 100 µM (inactive) |  | > 100 µM (inactive) | > 100 µM (inactive) |
| CCOC(=O)N/N=C(/N)Cc1ccc(Cl)cc1 | > 100 µM (inactive) | > 100 µM (inactive) | > 100 µM (inactive) | > 100 µM (inactive) | > 100 µM (inactive) | > 100 µM (inactive) | > 100 µM (inactive) | > 100 µM (inactive) | > 100 µM (inactive) |  | > 100 µM (inactive) | > 100 µM (inactive) |  |  | > 100 µM (inactive) | > 100 µM (inactive) | > 100 µM (inactive) | > 100 µM (inactive) |
| COc1cc(C2S/C(=C/c3ccccc3)C(=O)N2c2ccccn2)cc(OC)c1OC (configuration not stated) | 12.4 µM (inactive) | 13.9 µM (inactive) | 45.7 µM (inactive) | 11 µM (inactive) | 7.16 µM (inactive) | 13.7 µM (inactive) | 15.3 µM (inactive) | 7.18 µM (inactive) | 22.4 µM (inactive) | 20.1 µM (inactive) | 11.9 µM (inactive) | 14.7 µM (inactive) |  | 45.9 µM (inactive) | 33.1 µM (inactive) | 11 µM (inactive) | 10.5 µM (inactive) | 11.5 µM (inactive) |
| O=C(O)[C@@]1(Cc2ccc(O)cc2)C[C@@H]2Cc3ccccc3N2N1 | > 100 µM (inactive) | > 100 µM (inactive) | > 100 µM (inactive) | > 100 µM (inactive) | > 100 µM (inactive) | > 100 µM (inactive) | > 100 µM (inactive) | > 100 µM (inactive) | > 100 µM (inactive) | > 100 µM (inactive) |  | > 100 µM (inactive) |  | > 100 µM (inactive) | > 100 µM (inactive) | > 100 µM (inactive) | > 100 µM (inactive) | > 100 µM (inactive) |
| C#CC(O)(c1nc2ccccc2s1)c1nc2ccccc2s1 | 18.1 µM (inactive) | 16.6 µM (inactive) | 36.6 µM (inactive) | 27.2 µM (inactive) | 16.3 µM (inactive) | 20.3 µM (inactive) | 17.8 µM (inactive) | 17.6 µM (inactive) | 19 µM (inactive) | 23.5 µM (inactive) | 45.7 µM (inactive) | 12.3 µM (inactive) |  |  | 25.1 µM (inactive) | 15.2 µM (inactive) | 23 µM (inactive) | 23.1 µM (inactive) |
| Clc1nc(NC23CC4CC(CC(C4)C2)C3)nc(NC23CC4CC(CC(C4)C2)C3)n1 | 50.8 µM (inactive) | > 61.4 µM (inactive) | > 100 µM (inactive) | 66.1 µM (inactive) | 15.6 µM (inactive) | 38.5 µM (inactive) | > 83.4 µM (inactive) |  | 1.41 µM (inactive) | > 100 µM (inactive) | 4.62 µM (inactive) | > 100 µM (inactive) | 61 µM (inactive) | 97.9 µM (inactive) | 50.7 µM (inactive) | > 100 µM (inactive) | > 34.8 µM (inactive) | 92.3 µM (inactive) |
| O=C(O)c1ccc(N/C(=C(/C(Cl)=C(Cl)Cl)[N+](=O)[O-])n2nnc3ccccc32)cc1 | > 100 µM (inactive) | > 100 µM (inactive) |  | > 100 µM (inactive) | > 100 µM (inactive) | > 100 µM (inactive) | > 100 µM (inactive) |  | > 100 µM (inactive) | > 100 µM (inactive) | > 100 µM (inactive) | > 100 µM (inactive) | > 100 µM (inactive) | > 100 µM (inactive) | > 100 µM (inactive) |  | > 100 µM (inactive) | > 100 µM (inactive) |
| NCCN1C(=O)c2cc(Cl)c(Cl)cc2C1(O)c1ccc(Cl)cc1 (configuration not stated) | 2.19 µM (inactive) | 3.62 µM (inactive) | 1.92 µM (inactive) | 1.89 µM (inactive) | 1.72 µM (inactive) | 2.69 µM (inactive) | 3.72 µM (inactive) |  | 4.98 µM (inactive) | 2.54 µM (inactive) | 1.91 µM (inactive) | 1.79 µM (inactive) | 1.79 µM (inactive) |  | 1.87 µM (inactive) | 2.07 µM (inactive) | 2.19 µM (inactive) | 1.68 µM (inactive) |
| Cc1cc(S(=O)(=O)Nc2nc3ccccc3[nH]2)c(S)cc1Cl | 49.2 µM (inactive) | > 100 µM (inactive) | > 100 µM (inactive) | > 100 µM (inactive) | 22.4 µM (inactive) | 67.9 µM (inactive) | > 100 µM (inactive) | 97.3 µM (inactive) | 46.6 µM (inactive) | 45 µM (inactive) | 48 µM (inactive) | 79.4 µM (inactive) | 32.7 µM (inactive) |  | > 100 µM (inactive) | 61.5 µM (inactive) | 71.9 µM (inactive) | 49.8 µM (inactive) |
| O=S1(=O)c2ccccc2Oc2ccc(C(/C=N/O)=N/O)cc21 | 12.3 µM (inactive) |  | 0.155 µM (active) | 63.8 µM (inactive) | 43.7 µM (inactive) |  | 61.9 µM (inactive) | 12.1 µM (inactive) | 32.5 µM (inactive) | 16.5 µM (inactive) | 30.1 µM (inactive) | 71.3 µM (inactive) | 27.9 µM (inactive) | 57.4 µM (inactive) |  | 29.2 µM (inactive) | 38.6 µM (inactive) | 17.5 µM (inactive) |
| CCOC(=O)COc1ccc(/C=C/C(=O)c2ccc(OC)cc2)cc1 | 30 µM (inactive) | 28.5 µM (inactive) | 42 µM (inactive) | 21.5 µM (inactive) | 21.3 µM (inactive) | 25.8 µM (inactive) | 19 µM (inactive) | 22.3 µM (inactive) | 22.9 µM (inactive) | > 10 µM (inactive) | 40.6 µM (inactive) | 22.5 µM (inactive) |  |  | 23.1 µM (inactive) | 45.2 µM (inactive) | 33 µM (inactive) | 16.8 µM (inactive) |
| COC(=O)C1CCC(=S)N1C(=O)OCc1ccccc1 (configuration not stated) | 78.3 µM (inactive) | > 100 µM (inactive) | > 100 µM (inactive) | > 100 µM (inactive) | 83.9 µM (inactive) | > 100 µM (inactive) |  | 86.7 µM (inactive) | > 100 µM (inactive) | > 100 µM (inactive) | > 100 µM (inactive) | > 100 µM (inactive) | 39.5 µM (inactive) |  | 66.4 µM (inactive) | > 100 µM (inactive) | > 100 µM (inactive) | > 100 µM (inactive) |
| C[C@]12CC[C@H]3[C@@H](CCC4=CC(=O)C=C[C@@]43O)[C@@H]1CCC2=O | > 100 µM (inactive) | 55.2 µM (inactive) |  |  | > 100 µM (inactive) | 51.5 µM (inactive) | > 100 µM (inactive) |  | > 100 µM (inactive) | > 100 µM (inactive) | 83.9 µM (inactive) | 60.1 µM (inactive) | > 100 µM (inactive) | 69.8 µM (inactive) | > 100 µM (inactive) | 94 µM (inactive) | > 100 µM (inactive) | > 100 µM (inactive) |

Reference: ChEMBL document CHEMBL1201862, “PubChem BioAssay data set” (2004)
